Assay: Stability of pure vitamin C and YHC-Vc in aqueous solution (color, pH, vitamin C content) at 50° C. in airtight container for four weeks
Format: physicochemical

In the case of `O=C1O[C@H]([C@@H](O)CO)C(O)=C1O` [vitamin C, ascorbic acid], the change of color (50° C., airtight glass container, four weeks, 3.0 wt % vitamin C solution or 10.0 wt % composite dispersion) is reported as “abrupt change of color in the order from clear (colorless) to yellow, orange, and then red”, the pH (In 4 weeks, 50° C., airtight container) is reported as 2.52 and the pH condition maintained (at 50° C. for 4 weeks) is reported as about 2. For the same molecule, the “remaining amount of vitamin C” value (in four weeks at 50° C. in airtight container) was “about 51%”.

— patent publication US10835461B2, “Bio-active material composite, preparing method thereof and cosmetic composition containing the same” (priority 2015, dated 2020)
